From ChEMBL document CHEMBL1201862, “PubChem BioAssay data set” (2004)
Activity calls are given as the source filed them.

Assays:
[1] = target: Delta-type opioid receptor (Homo sapiens, UniProt P41143); experiment: Late-stage results from the probe development effort to identify antagonists of OPRK1: fluorescence-based cell-based dose response OPRD1 counterscreen, Set 2.; type: functional
[2] = target: Sphingosine 1-phosphate receptor 1 (Homo sapiens, UniProt P21453); experiment: Late-stage counterscreen for antagonists of kappa opioid receptor 1 (OPRK1): fluorescence-based cell-based dose response assay to identify antagonists of Sphingosine 1-Phosphate Receptor 1 (S1P1).; type: functional
Chain of Sphingosine 1-phosphate receptor 1 (P21453 whole entry): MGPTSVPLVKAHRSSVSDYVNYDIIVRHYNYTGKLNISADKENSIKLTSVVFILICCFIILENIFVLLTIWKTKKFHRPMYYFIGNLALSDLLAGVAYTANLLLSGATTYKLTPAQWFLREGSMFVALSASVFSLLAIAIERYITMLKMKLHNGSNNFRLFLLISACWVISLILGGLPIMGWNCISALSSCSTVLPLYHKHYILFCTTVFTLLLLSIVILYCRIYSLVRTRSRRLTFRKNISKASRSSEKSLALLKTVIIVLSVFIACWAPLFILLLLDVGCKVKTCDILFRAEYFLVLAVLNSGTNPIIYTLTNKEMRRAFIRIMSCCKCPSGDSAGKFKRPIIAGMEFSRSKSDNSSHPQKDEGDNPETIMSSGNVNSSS

[3] = target: Kappa-type opioid receptor (Homo sapiens, UniProt P41145); experiment: Late-stage fluorescence-based cell-based dose response assay for antagonists of kappa opioid receptor 1 (OPRK1).; type: functional
Chain of Kappa-type opioid receptor (P41145 whole entry): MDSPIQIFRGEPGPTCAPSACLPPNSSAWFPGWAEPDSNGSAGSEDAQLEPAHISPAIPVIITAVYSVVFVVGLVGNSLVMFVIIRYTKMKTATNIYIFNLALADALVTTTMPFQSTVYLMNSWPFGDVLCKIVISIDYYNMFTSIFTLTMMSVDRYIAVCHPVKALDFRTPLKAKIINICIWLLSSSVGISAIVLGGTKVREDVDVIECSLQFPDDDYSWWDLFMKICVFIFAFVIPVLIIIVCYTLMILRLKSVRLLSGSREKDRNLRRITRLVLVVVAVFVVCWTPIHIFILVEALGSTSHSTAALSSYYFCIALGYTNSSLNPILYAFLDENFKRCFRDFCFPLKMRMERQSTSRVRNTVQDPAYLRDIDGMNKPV

Mu-type opioid receptor = Mu-type opioid receptor (Homo sapiens, UniProt P35372); experiment: Late-stage results from the probe development effort to identify antagonists of OPRK1: luminescence-based cell-based dose response OPRM1 counterscreen, Set 2.; type: functional
[4] = HEK293 cell cytotoxicity, dose response, cytotoxicity control, dry powder samples (AID 720567); type: functional, cell-based
HT-1080 = experiment: cytotoxicity in HT1080 fibrosarcoma cells, cell-based, fluorescence readout (AID 620); type: functional; details: Homo sapiens
[5] = target: Luciferin 4-monooxygenase (Photinus pyralis, UniProt P08659); experiment: Counter Screen for Luciferase-based Assay Positives. [Related pubchem assays: 620, 618, 411 ]
Chain of Luciferin 4-monooxygenase (P08659 whole entry): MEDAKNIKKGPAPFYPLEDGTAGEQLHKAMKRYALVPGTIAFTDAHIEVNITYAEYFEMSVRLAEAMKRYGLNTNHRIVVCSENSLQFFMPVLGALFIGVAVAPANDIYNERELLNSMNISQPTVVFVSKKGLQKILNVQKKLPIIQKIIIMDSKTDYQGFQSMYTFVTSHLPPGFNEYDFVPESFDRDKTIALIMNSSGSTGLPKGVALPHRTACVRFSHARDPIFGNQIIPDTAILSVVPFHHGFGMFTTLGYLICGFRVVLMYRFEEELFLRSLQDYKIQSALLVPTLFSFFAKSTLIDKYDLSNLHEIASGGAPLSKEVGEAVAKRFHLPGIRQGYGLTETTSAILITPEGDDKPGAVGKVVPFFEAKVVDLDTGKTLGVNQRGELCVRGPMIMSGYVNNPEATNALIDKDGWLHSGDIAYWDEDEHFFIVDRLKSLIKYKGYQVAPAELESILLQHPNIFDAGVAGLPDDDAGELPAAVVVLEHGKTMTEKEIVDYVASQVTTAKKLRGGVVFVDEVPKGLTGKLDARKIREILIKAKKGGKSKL

[6] = Counterscreen for inhibitors of Trypanosoma brucei methionyl tRNA synthetase (MetRS): Luminescence-based cell-based high throughput dose response assay to identify compounds that are cytotoxic to Jurkat human T lymphocyte cells.; type: functional
[7] = target: T1, Methionyl-tRNA synthetase, putative (Trypanosoma brucei brucei, UniProt Q38C91); type: functional, Trypanosoma brucei brucei strain 927/4 GUTat10.1
T1 sequence (Q38C91 whole entry): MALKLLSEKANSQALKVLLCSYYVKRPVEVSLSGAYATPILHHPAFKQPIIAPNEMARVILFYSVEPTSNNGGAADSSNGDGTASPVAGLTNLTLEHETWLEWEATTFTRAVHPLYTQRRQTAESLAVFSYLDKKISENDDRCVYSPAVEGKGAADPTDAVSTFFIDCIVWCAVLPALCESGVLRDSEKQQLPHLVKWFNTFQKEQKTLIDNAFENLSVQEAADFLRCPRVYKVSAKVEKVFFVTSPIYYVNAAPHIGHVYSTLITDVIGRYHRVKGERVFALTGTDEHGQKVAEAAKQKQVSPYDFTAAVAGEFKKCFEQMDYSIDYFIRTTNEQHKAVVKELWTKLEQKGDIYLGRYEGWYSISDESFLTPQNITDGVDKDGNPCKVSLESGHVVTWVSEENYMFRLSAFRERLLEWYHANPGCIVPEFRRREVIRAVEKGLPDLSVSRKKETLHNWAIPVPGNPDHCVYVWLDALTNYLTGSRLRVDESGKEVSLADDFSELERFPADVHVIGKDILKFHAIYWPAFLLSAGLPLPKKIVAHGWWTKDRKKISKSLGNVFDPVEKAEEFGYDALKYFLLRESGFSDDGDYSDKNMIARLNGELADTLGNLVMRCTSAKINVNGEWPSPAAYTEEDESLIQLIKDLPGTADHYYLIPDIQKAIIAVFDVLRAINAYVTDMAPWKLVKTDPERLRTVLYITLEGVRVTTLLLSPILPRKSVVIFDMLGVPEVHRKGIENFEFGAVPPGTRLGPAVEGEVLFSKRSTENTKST

[8] = target: T1, Methionyl-tRNA synthetase, putative; type: functional, Trypanosoma brucei brucei strain 927/4 GUTat10.1; remark: listed apart in the source
[9] = Late stage counterscreen for inhibitors of Trypanosoma brucei methionyl tRNA synthetase (MetRS): Luminescence-based cell-based high throughput dose response assay to identify compounds that are cytotoxic to Jurkat human T lymphocyte cells.; type: functional
[10] = Luminescence-based cell-based high throughput dose response assay to identify activators of the DAF-12 from the parasite S. stercoralis (ssDAF-12).; type: functional
[11] = HepG2 cell cytotoxicity, dose response, cytotoxicity control, ATP luminescence, cherry-pick, activator set 2 (AID 1053143); type: functional, cell-based
Protein skinhead-1 = target: T2, Protein skinhead-1 (Caenorhabditis elegans, UniProt P34707); type: functional
T2 sequence (P34707 whole entry): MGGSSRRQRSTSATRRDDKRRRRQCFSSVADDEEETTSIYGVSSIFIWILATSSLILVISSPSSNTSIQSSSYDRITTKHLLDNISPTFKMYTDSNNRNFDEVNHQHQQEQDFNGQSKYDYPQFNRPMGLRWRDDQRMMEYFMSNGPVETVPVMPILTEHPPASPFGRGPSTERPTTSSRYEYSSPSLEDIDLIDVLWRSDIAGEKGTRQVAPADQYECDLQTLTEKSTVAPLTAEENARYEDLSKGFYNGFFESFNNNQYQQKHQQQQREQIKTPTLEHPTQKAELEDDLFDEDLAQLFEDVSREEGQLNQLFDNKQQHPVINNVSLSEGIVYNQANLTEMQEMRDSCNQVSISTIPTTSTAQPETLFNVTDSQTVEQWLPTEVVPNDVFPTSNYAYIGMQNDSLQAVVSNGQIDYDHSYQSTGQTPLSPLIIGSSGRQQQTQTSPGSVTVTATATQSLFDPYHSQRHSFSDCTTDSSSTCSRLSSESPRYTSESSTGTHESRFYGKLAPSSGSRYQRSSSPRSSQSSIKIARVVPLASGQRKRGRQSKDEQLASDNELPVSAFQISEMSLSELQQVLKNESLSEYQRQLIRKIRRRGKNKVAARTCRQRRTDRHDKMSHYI

[12] = target: T3, Oxysterols receptor LXR-beta (Homo sapiens, UniProt P55055); experiment: LXR agonists, Gal4 luciferase reporter, dose response, counter-screen for ssDAF-12 agonist project, cell-based, luminescence, HEK293, S. stercoralis campaign (AID 720737); type: functional; details: read-out: IC50 (the source's name)
T3 sequence (P55055 whole entry): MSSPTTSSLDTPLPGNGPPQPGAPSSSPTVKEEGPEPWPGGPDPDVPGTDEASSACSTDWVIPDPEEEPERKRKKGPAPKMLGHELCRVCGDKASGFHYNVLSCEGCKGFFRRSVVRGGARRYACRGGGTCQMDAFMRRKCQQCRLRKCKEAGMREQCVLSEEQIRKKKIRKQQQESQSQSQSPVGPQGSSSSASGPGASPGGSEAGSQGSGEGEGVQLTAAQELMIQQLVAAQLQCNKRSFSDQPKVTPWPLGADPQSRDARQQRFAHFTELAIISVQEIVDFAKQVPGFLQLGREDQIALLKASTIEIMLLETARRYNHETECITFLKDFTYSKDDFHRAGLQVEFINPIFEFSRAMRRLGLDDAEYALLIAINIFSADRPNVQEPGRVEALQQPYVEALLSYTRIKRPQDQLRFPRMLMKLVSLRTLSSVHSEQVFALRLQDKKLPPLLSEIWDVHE

[13] = Luminescence Cell-Based Dose Retest to Confirm Inhibitors of Cancer Stem Cells. [Related pubchem assays (depositor defined):AID2717, AID2721]; type: functional; details: Homo sapiens
[14] = target: T3, Oxysterols receptor LXR-beta; type: functional, cell-based
[15] = CEM21 lymphoblast cell cytotoxicity, dose response, cytotoxicity control for viral fusion inhibitor project, CellTiter-Glo luminescence, cherry-picked (AID 652042); type: functional, cell-based;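 note: potency for signal decrease meaning cytotoxicity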
[16] = CEM21 cell cytotoxicity, dose response, cytotoxicity control, plate reader, dry powder (AID 687026); type: functional, cell-based
[17] = inhibitors of HIV Env-driven cell fusion, dose response, cherry-pick (AID 652057); type: functional, cell-based
[18] = HIV Env cell-cell fusion inhibitors, dose response, HIV entry, plate reader, dry powder (AID 687023); type: functional, cell-based
[19] = cytotoxicity in HepG2 cells, dose response, cytotoxicity control, cell-based, plate reader, dry powder (AID 651947); type: functional
[20] = inhibitors of non-replicating M. tuberculosis, dose response, luciferase, dry powder (AID 651619); type: functional; details: Mycobacterium tuberculosis
[21] = cytotoxicity in HeLa cells, dose response, cytotoxicity control, cell-based, plate reader, dry powder (AID 651946); type: functional
[22] = growth inhibition of replicating M. tuberculosis, dose response, counter-screen, dry powder, IC90 (AID 651617); type: functional; details: Mycobacterium tuberculosis
[23] = inhibitors of non-replicating M. tuberculosis, dose response, luciferase, dry powder (AID 651620); type: functional; details: Mycobacterium tuberculosis
[24] = target: Glucose-6-phosphate 1-dehydrogenase (Homo sapiens, UniProt P11413); experiment: human G6PD enzyme inhibitors, dose response, selectivity assay for P. falciparum G6PD inhibitor project, biochemical, fluorescence (AID 504792); type: functional
Chain of Glucose-6-phosphate 1-dehydrogenase (P11413 whole entry): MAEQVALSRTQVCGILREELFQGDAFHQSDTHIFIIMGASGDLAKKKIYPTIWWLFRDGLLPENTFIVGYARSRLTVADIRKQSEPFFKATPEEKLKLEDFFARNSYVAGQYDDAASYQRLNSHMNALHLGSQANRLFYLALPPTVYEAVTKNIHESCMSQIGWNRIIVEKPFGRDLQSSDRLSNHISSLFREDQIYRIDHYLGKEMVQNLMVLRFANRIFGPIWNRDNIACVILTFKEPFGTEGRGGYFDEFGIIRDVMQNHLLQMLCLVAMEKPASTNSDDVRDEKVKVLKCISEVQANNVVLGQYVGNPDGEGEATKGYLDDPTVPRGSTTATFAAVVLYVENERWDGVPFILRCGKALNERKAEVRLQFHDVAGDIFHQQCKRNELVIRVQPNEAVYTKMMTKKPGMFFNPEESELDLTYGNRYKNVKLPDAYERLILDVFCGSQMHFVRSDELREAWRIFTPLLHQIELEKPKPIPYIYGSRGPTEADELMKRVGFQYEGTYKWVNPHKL

[25] = HeLa cell cytotoxicity, dose response, cytotoxicity control for MgcRacGAP inhibitor project (AID 624300); type: functional
[26] = inhibitors of fibronectin matrix deposition, dose response, AH1F cells, Alexa488-FN fluorescence, cherry-picks (AID 1035475); type: functional, cell-based
[27] = target: 1-phosphatidylinositol 4,5-bisphosphate phosphodiesterase gamma-1 (Homo sapiens, UniProt P19174); experiment: Counterscreen for inhibitors of phospholipase C isozymes (PLC-B3): Fluorescence-based biochemical high throughput dose response assay to identify inhibitors of phospholipase C isozymes (PLC-gamma1).
[28] = target: 1-phosphatidylinositol 4,5-bisphosphate phosphodiesterase beta-3 (Homo sapiens, UniProt Q01970); experiment: Fluorescence-based biochemical high throughput dose response assay to identify inhibitors of phospholipase C isozymes (PLC-B3).
Chain of 1-phosphatidylinositol 4,5-bisphosphate phosphodiesterase beta-3 (Q01970 whole entry): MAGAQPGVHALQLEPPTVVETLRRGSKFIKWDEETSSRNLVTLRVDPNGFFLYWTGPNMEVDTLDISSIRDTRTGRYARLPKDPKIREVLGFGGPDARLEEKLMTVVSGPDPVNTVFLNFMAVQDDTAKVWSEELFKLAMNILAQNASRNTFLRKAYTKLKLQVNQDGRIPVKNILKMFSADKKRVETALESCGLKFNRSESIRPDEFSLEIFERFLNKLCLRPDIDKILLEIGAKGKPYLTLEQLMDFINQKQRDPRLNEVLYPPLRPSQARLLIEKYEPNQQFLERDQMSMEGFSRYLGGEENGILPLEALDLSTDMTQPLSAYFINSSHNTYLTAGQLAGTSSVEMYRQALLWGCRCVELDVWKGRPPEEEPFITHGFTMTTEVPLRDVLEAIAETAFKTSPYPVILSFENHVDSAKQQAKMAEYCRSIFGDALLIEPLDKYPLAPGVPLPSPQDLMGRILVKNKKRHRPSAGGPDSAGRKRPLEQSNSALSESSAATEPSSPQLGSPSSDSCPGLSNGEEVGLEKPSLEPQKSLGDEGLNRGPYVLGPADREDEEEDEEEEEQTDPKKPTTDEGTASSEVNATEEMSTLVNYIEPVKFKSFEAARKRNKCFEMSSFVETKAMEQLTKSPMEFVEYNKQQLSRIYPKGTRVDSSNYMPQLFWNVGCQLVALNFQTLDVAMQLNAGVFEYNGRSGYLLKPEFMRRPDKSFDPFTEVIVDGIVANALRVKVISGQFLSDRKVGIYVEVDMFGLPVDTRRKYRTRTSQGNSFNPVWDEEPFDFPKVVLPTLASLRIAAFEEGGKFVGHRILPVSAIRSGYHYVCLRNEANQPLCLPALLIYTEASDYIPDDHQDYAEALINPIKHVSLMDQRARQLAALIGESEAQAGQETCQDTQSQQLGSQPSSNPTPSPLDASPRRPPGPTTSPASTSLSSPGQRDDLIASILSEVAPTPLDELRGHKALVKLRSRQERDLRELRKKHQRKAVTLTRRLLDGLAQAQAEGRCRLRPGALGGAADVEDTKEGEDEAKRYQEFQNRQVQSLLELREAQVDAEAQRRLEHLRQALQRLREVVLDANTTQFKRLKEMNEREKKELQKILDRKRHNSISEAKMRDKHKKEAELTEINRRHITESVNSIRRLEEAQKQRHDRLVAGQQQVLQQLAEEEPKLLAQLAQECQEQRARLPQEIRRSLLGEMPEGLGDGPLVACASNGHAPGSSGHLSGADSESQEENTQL

[29] = HEK293T cell cytotoxicity, dose response, cytotoxicity control, CellTiter-Glo luminescence, dry powder, set 6 (AID 651949); type: functional, cell-based; details: HEK293
[30] = HepG2 cell cytotoxicity, dose response, cytotoxicity control, ATP luminescence, cherry-pick, set 6 (AID 1053125); type: functional, cell-based
[31] = target: SWI/SNF-related matrix-associated actin-dependent regulator of chromatin subfamily A member 2 (Homo sapiens, UniProt P51531); experiment: Luminescence-based cell-based high throughput dose response assay to identify activators of the function of SWI/SNF related, matrix associated, actin dependent regulator of chromatin, subfamily a, member 2 (SMARCA2, BRM).; type: functional
Chain of SWI/SNF-related matrix-associated actin-dependent regulator of chromatin subfamily A member 2 (P51531 whole entry): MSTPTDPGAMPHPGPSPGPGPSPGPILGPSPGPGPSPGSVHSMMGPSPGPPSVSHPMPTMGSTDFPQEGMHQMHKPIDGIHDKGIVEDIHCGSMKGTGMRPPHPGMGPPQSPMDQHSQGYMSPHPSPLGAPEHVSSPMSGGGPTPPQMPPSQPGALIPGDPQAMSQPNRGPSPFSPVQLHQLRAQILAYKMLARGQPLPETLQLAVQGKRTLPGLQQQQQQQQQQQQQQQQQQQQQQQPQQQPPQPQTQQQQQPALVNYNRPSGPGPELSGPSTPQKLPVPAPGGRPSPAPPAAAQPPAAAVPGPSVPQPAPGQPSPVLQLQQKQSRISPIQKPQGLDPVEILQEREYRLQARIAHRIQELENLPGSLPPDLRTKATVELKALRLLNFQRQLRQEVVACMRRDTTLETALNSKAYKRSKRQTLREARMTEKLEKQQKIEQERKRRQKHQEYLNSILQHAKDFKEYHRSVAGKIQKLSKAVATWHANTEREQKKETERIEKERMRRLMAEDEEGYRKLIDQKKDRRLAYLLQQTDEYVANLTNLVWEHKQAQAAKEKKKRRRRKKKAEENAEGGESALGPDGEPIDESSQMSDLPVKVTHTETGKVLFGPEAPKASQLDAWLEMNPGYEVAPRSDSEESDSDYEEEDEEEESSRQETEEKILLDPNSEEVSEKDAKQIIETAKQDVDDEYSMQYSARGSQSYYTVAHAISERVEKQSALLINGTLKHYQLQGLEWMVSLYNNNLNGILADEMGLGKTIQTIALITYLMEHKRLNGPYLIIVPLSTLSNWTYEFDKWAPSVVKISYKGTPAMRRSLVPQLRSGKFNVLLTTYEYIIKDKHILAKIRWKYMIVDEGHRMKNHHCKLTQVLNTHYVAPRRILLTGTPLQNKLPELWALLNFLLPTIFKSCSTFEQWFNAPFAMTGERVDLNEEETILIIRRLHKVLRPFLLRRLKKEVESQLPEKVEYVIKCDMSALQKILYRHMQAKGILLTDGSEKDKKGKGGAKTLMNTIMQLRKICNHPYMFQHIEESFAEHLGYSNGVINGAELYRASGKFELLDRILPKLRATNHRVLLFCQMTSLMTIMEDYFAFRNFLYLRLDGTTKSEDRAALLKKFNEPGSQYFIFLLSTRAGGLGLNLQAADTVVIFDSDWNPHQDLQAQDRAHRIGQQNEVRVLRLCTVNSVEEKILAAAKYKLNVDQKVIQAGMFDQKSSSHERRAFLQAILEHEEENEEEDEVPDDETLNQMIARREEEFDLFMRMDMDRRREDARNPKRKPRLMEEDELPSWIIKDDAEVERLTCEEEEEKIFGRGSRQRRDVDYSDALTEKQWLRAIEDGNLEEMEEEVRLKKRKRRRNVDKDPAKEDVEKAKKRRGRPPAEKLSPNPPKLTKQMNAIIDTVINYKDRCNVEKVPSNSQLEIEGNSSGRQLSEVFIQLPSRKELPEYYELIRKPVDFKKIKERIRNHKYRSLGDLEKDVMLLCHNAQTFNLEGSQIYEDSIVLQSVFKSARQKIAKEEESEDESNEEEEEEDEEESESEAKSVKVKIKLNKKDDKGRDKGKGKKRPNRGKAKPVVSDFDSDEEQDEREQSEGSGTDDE

A-375 = experiment: MITF: Counter assay: A375 proliferation Measured in Cell-Based System Using Plate Reader - 2084-03_Inhibitor_Dose_DryPowder_Activity. [Related pubchem assays (depositor defined):AID488944]; type: functional; details: Homo sapiens
[32] = target: T4, Microphthalmia-associated transcription factor (Homo sapiens, UniProt O75030); experiment: TRPM1 promoter luciferase signal decrease, dose response, MITF inhibitor project, cell-based, SK-MEL-5, cherry-picked, set 3 (AID 493073); type: functional
T4 sequence (O75030 whole entry): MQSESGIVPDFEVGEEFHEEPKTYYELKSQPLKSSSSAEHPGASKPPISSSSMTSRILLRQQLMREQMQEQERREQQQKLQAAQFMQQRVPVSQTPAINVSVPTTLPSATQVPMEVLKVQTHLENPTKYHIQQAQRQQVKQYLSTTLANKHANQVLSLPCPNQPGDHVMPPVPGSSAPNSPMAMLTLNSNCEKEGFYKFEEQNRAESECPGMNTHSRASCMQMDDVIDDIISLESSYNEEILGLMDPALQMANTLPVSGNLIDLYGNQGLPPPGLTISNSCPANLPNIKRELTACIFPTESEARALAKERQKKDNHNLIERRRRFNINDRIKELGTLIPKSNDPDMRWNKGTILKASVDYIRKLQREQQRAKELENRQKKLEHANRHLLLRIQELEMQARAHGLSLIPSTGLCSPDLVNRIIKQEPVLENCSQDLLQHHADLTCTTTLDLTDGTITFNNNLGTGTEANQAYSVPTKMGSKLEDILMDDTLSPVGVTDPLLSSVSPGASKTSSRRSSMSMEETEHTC

[33] = Counterscreen for activators of the function of SWI/SNF related, matrix associated, actin dependent regulator of chromatin, subfamily a, member 2 (SMARCA2, BRM): Luminescence-based cell-based high throughput dose response assay to identify non-selective compounds using the VP16 reporter assay.; type: functional
cells [34] = details: HEK293
cells [35] = details: A549

Chain of Delta-type opioid receptor (P41143 whole entry): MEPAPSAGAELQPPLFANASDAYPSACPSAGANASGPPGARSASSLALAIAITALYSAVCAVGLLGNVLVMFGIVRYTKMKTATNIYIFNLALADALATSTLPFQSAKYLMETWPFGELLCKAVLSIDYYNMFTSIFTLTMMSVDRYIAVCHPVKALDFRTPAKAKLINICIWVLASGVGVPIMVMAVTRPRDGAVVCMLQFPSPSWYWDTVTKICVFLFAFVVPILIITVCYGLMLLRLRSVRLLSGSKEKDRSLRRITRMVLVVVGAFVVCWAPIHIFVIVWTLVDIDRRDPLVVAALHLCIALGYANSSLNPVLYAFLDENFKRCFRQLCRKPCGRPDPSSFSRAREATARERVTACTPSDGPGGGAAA

CN(C)c1cccc2c1c(NC(=O)Nc1ccc(OCc3ccccc3)cc1)nn2C
IC50 [1]: 4.38 µM (active) | IC50 [2]: 34.9 µM (inactive) | IC50 [3]: 1.82 µM (active) | IC50 (Mu-type opioid receptor): 42.9 µM (inactive)

Cc1cc(NC(=O)CSc2nc(-c3ccco3)cc(C(F)(F)F)n2)no1
AC50 [4]: > 30 µM (inactive) | EC50 (HT-1080): 6.41 µM (active) | EC50 [5]: 1.59 µM (active)

O=C(NCc1nc2ccccc2[nH]1)C1=C[C@H](c2ccc3c(c2)OCO3)C[C@H](OCCCCO)O1
IC50 [6]: 83.3 µM (inactive) | IC50 [7]: 1.84 µM (active) | IC50 [8]: 3.35 µM (active) | IC50 [9]: > 83.3 µM (inactive)

Oc1cccc(/C=C/c2ccc3cccc(O)c3n2)c1
IC50 [10]: > 67.6 µM (inactive) | AC50 [11]: 26 µM (active) | IC50 (Protein skinhead-1): > 100 µM (inactive) | EC50 [12]: > 67.6 µM (inactive) | AC50 [13]: 3.91 µM (active) | EC50 [14]: > 67.6 µM (inactive)

C[C@@H]1CN([C@H](C)CO)C(=O)c2cccc(NS(=O)(=O)c3ccc(Cl)cc3)c2O[C@@H]1CN(C)Cc1ccc(Cl)c(Cl)c1
AC50 [15]: 52.9 µM (active) | AC50 [16]: 18.9 µM (active) | AC50 [17]: 1.45 µM (active) | AC50 [18]: 7.39 µM (active)

Clc1ccc(-c2nnc(SCc3ccccn3)o2)cc1
AC50 [19]: 27.8 µM (active) | IC90 [20]: 4 µM (active) | AC50 [21]: > 52 µM (inactive) | IC90 [22]: 62 µM (active) | IC90 [23]: 4 µM (active)

O=C(Nc1nc(-c2ccncc2)cs1)C1COc2ccccc2O1 (configuration not stated)
IC50 [24]: > 80 µM (inactive) | CC50 [25]: 100 µM (active) | AC50 [26]: 0.512 µM (active)

O=C(NCc1ccc(F)cc1)c1cc2c(s1)CCCC2
IC50 [27]: > 123 µM (inactive) | IC50 [28]: > 123 µM (inactive)

Fc1ccc(Cn2cc(CSc3nnc(C4CCC4)o3)nn2)cc1
IC90 [20]: 4 µM (active) | AC50 [29]: 47.1 µM (active) | IC90 [22]: 250 µM (active) | IC90 [23]: 4 µM (active)

c1ccc2cc3c(NCCN4CCOCC4)ccnc3cc2c1
AC50 [30]: 12 µM (active) | EC50 [31]: 11.1 µM (inactive) | AC50 (A-375): 21.2 µM (active) | AC50 [32]: 2.91 µM (active) | EC50 [33]: > 91.2 µM (inactive) | AC50 (cells [34]): 9.44 µM (active) | AC50 (cells [35]): 6.11 µM (active)
